Measurements published in US7851474B2, “Dipiperazinyl ketones and related analogues” (Neurogen Corporation, priority 2005, dated 2010).

Target: T1, chimeric human H3 receptor (Homo sapiens, UniProt Q9Y5N1, E19D)
T1 construct: made in house; host or cells: Sf9 insect cells (baculovirus infection); P2 membrane preparation
Experiment: Chimeric human H3 receptor GTP binding assay (agonist-stimulated GTP-gamma35S binding, Example 7)
Type: biochemical
Conditions: not given
From the text: This Example illustrates a representative assay for evaluating agonist-stimulated GTP-gamma^35S binding (“GTP binding”) activity. […] This agonist-stimulated GTP binding activity can also be used to detect partial agonism mediated by antagonist compounds. A compound analyzed in this assay is referred to herein as a “test compound.”
Four independent baculoviral stocks (one directing the expression of the chimeric human H3 receptor and three directing the expression of each of the three subunits of a heterotrimeric G-protein) are used to infect a culture of Sf9 cells as described above. P2 membranes are prepared as described above, and agonist-stimulated GTP binding on the P2 membranes is assessed using histamine (Sigma Chemical Co., St. Louis, Mo.) as agonist in order to ascertain that the receptor/G-protein-alpha-beta-gamma combination(s) yield a functional response as measured by GTP binding. P2 membranes are resuspended by Dounce homogenization (tight pestle) in GTP binding assay buffer (50 mM Tris pH 7.4, 120 mM NaCl, 5 mM MgCl2, 2 mM EGTA, 1 mg/ml BSA, 0.2 mg/ml bacitracin, 0.02 mg/ml aprotinin, 0.01 mg/ml saponin, 10 μM GDP) and added to assay tubes at a concentration of 35 μg protein/reaction tube. […] In competition experiments, non-radiolabeled test compounds are added to separate reactions at concentrations ranging from 10^−10 M to 10^−6 M along with 1 μM histamine to yield a final volume of 0.20 ml.
Neutral antagonists are antagonists that are substantially free of inherent agonist activity, and include those test compounds that reduce the histamine-stimulated GTP binding activity towards, but not below, baseline levels. In contrast, in the absence of added histamine, inverse agonists reduce the GTP binding activity of the receptor-containing membranes below baseline.
After a 60-min incubation at room temperature, reactions are terminated by vacuum filtration over WHATMAN GF/C filters (pre-soaked in wash buffer, 0.1% BSA) followed by washing with ice-cold wash buffer (50 mM Tris pH 7.4, 120 mM NaCl). The amount of receptor-bound (and thereby membrane-bound) GTP-gamma^35S is determined by measuring the filter-bound radioactivity, preferably by liquid scintillation spectrometry of the washed filters. […] Data is expressed as percent above basal (baseline). The results of GTP binding experiments are analyzed using SIGMAPLOT software (SPSS Inc., Chicago, Ill.).
IC50 values are calculated by non-linear regression analysis of dose-response curves using Kaleidograph (Synergy Software, Reading, Pa.).

T1 sequence (Q9Y5N1 with tags, fused parts or gaps E19D): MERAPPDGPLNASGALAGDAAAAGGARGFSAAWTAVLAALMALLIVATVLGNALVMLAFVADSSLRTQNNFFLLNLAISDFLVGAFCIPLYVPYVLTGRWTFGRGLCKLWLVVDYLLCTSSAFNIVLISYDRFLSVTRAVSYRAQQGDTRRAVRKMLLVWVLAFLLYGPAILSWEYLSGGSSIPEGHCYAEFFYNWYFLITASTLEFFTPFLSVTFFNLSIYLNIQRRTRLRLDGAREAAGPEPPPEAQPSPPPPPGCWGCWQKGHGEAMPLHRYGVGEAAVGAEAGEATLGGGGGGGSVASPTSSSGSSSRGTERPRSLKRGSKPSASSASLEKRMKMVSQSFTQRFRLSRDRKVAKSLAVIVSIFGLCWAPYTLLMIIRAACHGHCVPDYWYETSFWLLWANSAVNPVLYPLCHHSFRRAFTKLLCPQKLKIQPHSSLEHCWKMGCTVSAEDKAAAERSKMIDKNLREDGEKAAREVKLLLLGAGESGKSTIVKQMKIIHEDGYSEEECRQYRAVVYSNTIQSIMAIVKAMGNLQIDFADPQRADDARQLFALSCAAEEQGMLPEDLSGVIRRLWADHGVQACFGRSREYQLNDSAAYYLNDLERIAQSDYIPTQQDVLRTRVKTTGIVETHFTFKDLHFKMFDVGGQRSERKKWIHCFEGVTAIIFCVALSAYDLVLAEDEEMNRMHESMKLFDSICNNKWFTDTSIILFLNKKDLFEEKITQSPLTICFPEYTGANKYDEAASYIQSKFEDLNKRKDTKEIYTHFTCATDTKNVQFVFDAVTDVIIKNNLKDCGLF

Structure (SMILES)	Ki
O=C(CN1CCN(c2ccc3c(c2)OCO3)CC1)N1CCN(C2CCCC2)CC1 [Compound 257, 1-(1,3-benzodioxol-5-yl)-4-[2-(4-cyclopentylpiperazin-1-yl)-2-oxoethyl]piperazine]	< 1000 nM
CC(C)N1CCN(C(=O)CN2CCN(c3ccc4c(c3)OCO4)CC2)CC1 [Compound 258, 1-(1,3-benzodioxol-5-yl)-4-[2-(4-isopropylpiperazin-1-yl)-2-oxoethyl]piperazine]	< 1000 nM
CC(C)N1CCN(C(=O)CN2CCN(c3cccc(Cl)c3Cl)CC2)CC1 [Compound 262, 1-(2,3-dichlorophenyl)-4-[2-(4-isopropylpiperazin-1-yl)-2-oxoethyl]piperazine]	< 1000 nM
CC(C)N1CCN(C(=O)CN2CCN(c3cccc(F)c3)CC2)CC1 [Compound 303, 1-(3-fluorophenyl)-4-[2-(4-isopropylpiperazin-1-yl)-2-oxoethyl]piperazine]	< 1000 nM

Same assay, conditions: assay of Example 7; "*" in Ki of Table II; read-out: Ki

Structure (SMILES)	Ki
CC(=O)c1ccc(N2C[C@@H](C)N(CC(=O)N3CCN(C4CCC4)CC3)C[C@@H]2C)cc1 (relative stereo) [Compound 1269, rel-1-(4-{(2R,5S)-4-[2-(4-cyclobutylpiperazin-1-yl)-2-oxoethyl]-2,5-dimethylpiperazin-1-yl}phenyl)ethanone]	< 1000 nM

Same assay, conditions: assay of Example 7; symbol * in column headed Ki of Table II; read-out: Ki

Structure (SMILES)	Ki
O=C(CN1CCN(c2ccc(F)cc2F)CC1)N1C[C@H]2C[C@@H]1CN2C1CCC1 [Compound 247, (1R,4R)-2-cyclobutyl-5-{[4-(2,4-difluorophenyl)piperazin-1-yl]acetyl}-2,5-diaza bicyclo[2.2.1]heptane]	< 1000 nM
O=C(c1ccccc1)c1ccc(N2CCN(CC(=O)N3CCN(C4CCC4)CC3)CC2)cc1 [Compound 248, (4-{4-[2-(4-cyclobutylpiperazin-1-yl)-2-oxoethyl]piperazin-1-yl}phenyl)(phenyl)methanone]	< 1000 nM
O=C(c1ccc(N2CCN(CC(=O)N3CCN(C4CCC4)CC3)CC2)cc1)C1CC1 [Compound 249, (4-{4-[2-(4-cyclobutylpiperazin-1-yl)-2-oxoethyl]piperazin-1-yl}phenyl)(cyclopropyl) methanone]	< 1000 nM
O=C(c1ccncc1)c1ccc(N2CCN(CC(=O)N3CCN(C4CCC4)CC3)CC2)cc1 [Compound 250, (4-{4-[2-(4-cyclobutylpiperazin-1-yl)-2-oxoethyl]piperazin-1-yl}phenyl)(pyridin-4-yl)methanone]	< 1000 nM
O=C(c1ccccc1)c1ccc(N2CCN(CC(=O)N3CCN(C4CCCC4)CC3)CC2)cc1 [Compound 251, (4-{4-[2-(4-cyclopentylpiperazin-1-yl)-2-oxoethyl]piperazin-1-yl}phenyl)(phenyl)methanone]	< 1000 nM
O=C(CN1CCN(c2cccc(C(=O)N3CC[C@H]4CCCC[C@@H]4C3)c2)CC1)N1CCN(C2CCC2)CC1 [Compound 252, (4aR,8aS)-2-(3-{4-[2-(4-cyclobutylpiperazin-1-yl)-2-oxoethyl]piperazin-1-yl}benzoyl) decahydroisoquinoline]	< 1000 nM
O=C(CN1CCN(c2ccc(C(=O)N3CC[C@H]4CCCC[C@@H]4C3)cc2)CC1)N1CCN(C2CCC2)CC1 [Compound 253, (4aR,8aS)-2-(4-{4-[2-(4-cyclobutylpiperazin-1-yl)-2-oxoethyl]piperazin-1-yl}benzoyl) decahydroisoquinoline]	< 1000 nM
O=C(CN1CCN(c2cccc(C(=O)N3CC[C@@H]4CCCC[C@@H]4C3)c2)CC1)N1CCN(C2CCC2)CC1 [Compound 254, (4aS,8aS)-2-(3-{4-[2-(4-cyclobutylpiperazin-1-yl)-2-oxoethyl]piperazin-1-yl}benzoyl) decahydroisoquinoline]	< 1000 nM
O=C(CN1CCN(c2ccc(C(=O)N3CC[C@@H]4CCCC[C@@H]4C3)cc2)CC1)N1CCN(C2CCC2)CC1 [Compound 255, (4aS,8aS)-2-(4-{4-[2-(4-cyclobutylpiperazin-1-yl)-2-oxoethyl]piperazin-1-yl}benzoyl) decahydroisoquinoline]	< 1000 nM
CC(C)N1CCN(C(=O)CN2CCN(c3ccc(F)cc3F)CC2)CC1 [Compound 264, 1-(2,4-difluorophenyl)-4-[2-(4-isopropylpiperazin-1-yl)-2-oxoethyl]piperazine]	< 1000 nM
Cc1cccc(C)c1N1CCN(CC(=O)N2CCN(C(C)C)CC2)CC1 [Compound 268, 1-(2,6-dimethylphenyl)-4-[2-(4-isopropylpiperazin-1-yl)-2-oxoethyl]piperazine]	< 1000 nM
CC(=O)c1cnc(N2CCN(CC(=O)N3CCN(C4CCC4)CC3)CC2)nc1 [Compound 269, 1-(2-{4-[2-(4-cyclobutylpiperazin-1-yl)-2-oxoethyl]piperazin-1-yl}pyrimidin-5-yl)ethanone]	< 1000 nM
Cc1ccc(F)c(-c2ccc(N3CCN(CC(=O)N4CCN(C5CCC5)CC4)CC3)cc2)c1Cl [Compound 273, 1-(2′-chloro-6′-fluoro-3′-methylbiphenyl-4-yl)-4-[2-(4-cyclobutylpiperazin-1-yl)-2-oxoethyl]piperazine]	< 1000 nM
O=C(CN1CCN(c2ccc(-c3ccccc3Cl)cc2)CC1)N1CCN(C2CCC2)CC1 [Compound 278, 1-(2′-chlorobiphenyl-4-yl)-4-[2-(4-cyclobutylpiperazin-1-yl)-2-oxoethyl]piperazine]	< 1000 nM
CC(C)N1CCN(C(=O)CN2CCN(c3ccc(Cl)c(Cl)c3)CC2)CC1 [Compound 283, 1-(3,4-dichlorophenyl)-4-[2-(4-isopropylpiperazin-1-yl)-2-oxoethyl]piperazine]	< 1000 nM
CCN1CCN(C(=O)CN2CCN(c3ccc(OC)c(OC)c3)CC2)CC1 [Compound 284, 1-(3,4-dimethoxyphenyl)-4-[2-(4-ethylpiperazin-1-yl)-2-oxoethyl]piperazine]	< 1000 nM
COc1ccc(N2CCN(CC(=O)N3CCN(C(C)C)CC3)CC2)cc1OC [Compound 285, 1-(3,4-dimethoxyphenyl)-4-[2-(4-isopropylpiperazin-1-yl)-2-oxoethyl]piperazine]	< 1000 nM
CC(=O)c1ccc(-c2cccc(N3CCN(CC(=O)N4CCN(C5CCC5)CC4)CC3)c2)cc1 [Compound 288, 1-(3′-{4-[2-(4-cyclobutylpiperazin-1-yl)-2-oxoethyl]piperazin-1-yl}biphenyl-4-yl)ethanone]	< 1000 nM
O=C(CN1CCN(c2cccc(C(=O)N3CCCCCC3)c2)CC1)N1CCN(C2CCC2)CC1 [Compound 289, 1-(3-{4-[2-(4-cyclobutylpiperazin-1-yl)-2-oxoethyl]piperazin-1-yl}benzoyl)azepane]	< 1000 nM
O=C(CN1CCN(c2cccc(Br)c2)CC1)N1CCN(C2CCC2)CC1 [Compound 293, 1-(3-bromophenyl)-4-[2-(4-cyclobutylpiperazin-1-yl)-2-oxoethyl]piperazine]	< 1000 nM
CC(=O)c1ccc(N2CCN(CC(=O)N3CCN(C4CCC4)CC3)CC2)c(Cl)c1 [Compound 295, 1-(3-chloro-4-{4-[2-(4-cyclobutylpiperazin-1-yl)-2-oxoethyl]piperazin-1-yl}phenyl)ethanone]	< 1000 nM
O=C(CN1CCN(c2ccc(-c3ccc(F)c(Cl)c3)cc2)CC1)N1CCN(C2CCC2)CC1 [Compound 297, 1-(3′-chloro-4′-fluorobiphenyl-4-yl)-4-[2-(4-cyclobutylpiperazin-1-yl)-2-oxoethyl]piperazine]	< 1000 nM
O=C(CN1CCN(c2ccc(-c3cccc(Cl)c3)cc2)CC1)N1CCN(C2CCC2)CC1 [Compound 300, 1-(3′-chlorobiphenyl-4-yl)-4-[2-(4-cyclobutylpiperazin-1-yl)-2-oxoethyl]piperazine]	< 1000 nM
O=C(CN1CCN(c2cccc(Cl)c2)CC1)N1CCN(C2CCC2)CC1 [Compound 301, 1-(3-chlorophenyl)-4-[2-(4-cyclobutylpiperazin-1-yl)-2-oxoethyl]piperazine]	< 1000 nM
CC(C)N1CCN(C(=O)CN2CCN(c3cccc(Cl)c3)CC2)CC1 [Compound 302, 1-(3-chlorophenyl)-4-[2-(4-isopropylpiperazin-1-yl)-2-oxoethyl]piperazine]	< 1000 nM
CC(=O)c1ccc(N2CCN(CC(=O)N3CCN(C4CCC4)CC3C)CC2)cc1 (centres unmarked) [Compound 304, 1-(4-{4-[2-(4-cyclobutyl-2-methylpiperazin-1-yl)-2-oxoethyl]piperazin-1-yl}phenyl)ethanone]	< 1000 nM
CC(=O)c1ccc(N2CCN(CC(=O)N3CCN(C4CCC4)CC3)[C@H](C)C2)cc1 [Compound 306, 1-(4-{4-[2-(4-cyclobutylpiperazin-1-yl)-2-oxoethyl]-3-methylpiperazin-1-yl}phenyl)ethanone]	< 1000 nM
